Results: patent US6432381B1, “Methods for targeting drug delivery to the upper and/or lower gastrointestinal tract” (Elan Pharma International Limited, priority 1994, dated 2002)

Tests used:
[1] = Particle size determination; assay type: physicochemical; conditions: wet grinding
Method: As used herein, particle size is determined on the basis of weight average particle size as measured by conventional particle size measuring techniques well known to those skilled in the art, such as sedimentation field flow fractionation, photon correlation spectroscopy, or disk centrifugation. […] By “effective particle size” is meant that at least 90% of the particles in the sample measured by the above-noted weight sizing techniques have a particle size less than the stated size.
The particle size was determined during the milling process and again immediately before the suspensions were administered. Particle size was determined on the Coulter Model N4MD Submicron Particle Analyzer (Coulter Corp.; Miami Lakes, Fla.); and using the Microtrac Ultrafine Particle Analyzer (Leeds and Northrup Co.; St. Petersburg, Fla.).

[2] = Table 3
[3] = test system: GI tract; test: X-ray diagnostic imaging of mucoadhesion in the GI tract (ferrets); assay type: in vivo; conditions: suspension milled in Pluronic F127
Method: (§1) The amount and site of the mucoadhesion was determined by x-ray diagnostic imaging. The imaging was performed in anesthetized rats with the exception of G05-R1 samples which were imaged in fasted and anesthetized ferrets. Images were obtained using the Siemens C-Arm Siremobil 3U x-ray unit. The imaging dose was 10 ml/kg administered via gastric intubation to the anesthetized animal. X-rays were taken at 15, 30, 45 and 60 minutes and at 1, 2, 5 and 24 hours post-dose. A 10-15 ml volume of air was introduced to the animal at 30 minutes to produce a double contrast image.
(§2) Images were evaluated by the criteria of: coating, homogeneity, rate of gastric emptying and the total transit time. These are considered to be a measure of the stability of the suspension during transit down the GI tract and the ability of the formulation to adhere to the lower gastrointestinal tract. Suspensions were rated excellent when there was a uniform coating with transradiation of long intestinal segments, sufficient radiodensity to delineate anatomical structure, rapid emptying and transit, and stability and homogeneity during GI transit. A plus sign (+) was assigned when imaging in the lower GI was exceptional, a minus sign (−) as given when it was not. […]

[4] = test system: GI tract; test: X-ray diagnostic imaging of mucoadhesion in the GI tract (rats); assay type: in vivo
Method: as §1, §2

O=C1NC(=O)C(c2ccccc2)(c2ccccc2)N1 [phenytoin]
Particle Size Weight Average ([1]; phenytoin 5%, poloxamer F-68 2.5%): 385 nm | Particle Size Weight Average ([1]; phenytoin 5%, poloxamer F-108 2.5%): 385 nm | Particle Size Weight Average ([1]; phenytoin 5%, poloxamer F-127 2.5%): 431 nm

CN(Cc1cnc2nc(N)nc(N)c2n1)c1ccc(C(=O)N[C@@H](CCC(=O)O)C(=O)O)cc1 [methotrexate]
Particle Size Weight Average ([1]; methotrexate 5%, poloxamer F-68 2.5%): 196 nm | Particle Size Weight Average ([1]; methotrexate 5%, poloxamer F-127 2.5%): 248 nm

COC1=CC(=O)C[C@@H](C)[C@]12Oc1c(Cl)c(OC)cc(OC)c1C2=O [griseofulvin]
Particle Size Weight Average ([1]; griseofulvin 5%, poloxamer F-68 2.5%): 617 nm | Particle Size Weight Average ([1]; griseofulvin 5%, poloxamer F-127 2.5%): 617 nm

CS(=O)(=O)OCCCCOS(C)(=O)=O [busulfan]
Particle Size Weight Average ([1]; busulfan 2%, poloxamer F-108 0.5%): 387 nm

COc1ccc2cc([C@H](C)C(=O)O)ccc2c1 [naproxen]
Particle Size Weight Average ([1]; naproxen 5%, poloxamer F-68 3.0%): 270 nm

COc1ccc2c(c1)c(CC(=O)O)c(C)n2C(=O)c1ccc(Cl)cc1 [indomethacin]
Particle Size Weight Average ([1]; indomethacin 5%, poloxamer F-68 1%): 228 nm | Particle Size Weight Average ([1]; indomethacin 5%, poloxamer F-68 2.5%): 193 nm

CCC(=O)OCC(=O)[C@@]1(OC(=O)CC)[C@@H](C)C[C@H]2[C@@H]3CCC4=CC(=O)C=C[C@]4(C)[C@@]3(Cl)[C@@H](O)C[C@@]21C [beclomethasone dipropionate]
Particle Size Weight Average ([1]; beclomethasone dipropionate 5%, poloxamer F-68 2.5%): 221 nm | Particle Size Weight Average ([1]; beclomethasone dipropionate 5%, poloxamer F-127 2.5%): 244 nm

CS(=O)(=O)OCCC(=O)N1CCN(C(=O)CCOS(C)(=O)=O)CC1 [piposulfan]
Particle Size Weight Average ([1]; piposulfan 2%, poloxamer F-108 0.5%): 339 nm

C[C@@H]1[C@H](O)[C@@H](C)/C=C/C=C/C=C/C=C/C=C/C=C/C=C/[C@H](O[C@@H]2O[C@H](C)[C@@H](O)[C@H](N)[C@@H]2O)C[C@@H]2O[C@](O)(C[C@@H](O)C[C@@H](O)[C@H](O)CC[C@@H](O)C[C@@H](O)CC(=O)O[C@H]1C)C[C@H](O)[C@H]2C(=O)O [amphotericin B]
Particle Size Weight Average ([1]; amphotericin B 5%, poloxamer F-68 2.5%): 426 nm | Particle Size Weight Average ([1]; amphotericin B 5%, poloxamer F-127 2.5%): 510 nm

CC[C@@]1(O)C(=O)OCc2c1cc1n(c2=O)Cc2cc3ccccc3nc2-1 [camptothecin]
Particle Size Weight Average ([1]; camptothecin 2%, poloxamer F-68 2%): 107 nm | Particle Size Weight Average ([1]; camptothecin 2%, poloxamer F-108 1%): 111 nm

CC(C)Cc1ccc(C(C)C(=O)O)cc1 (centres unmarked) [ibuprofen]
Particle Size Weight Average ([1]; ibuprofen 3%, poloxamer F-68 2.0%): 253 nm

CCOC(=O)c1c(I)c(NC(C)=O)c(I)c(NC(C)=O)c1I [WIN 8883, ethyl 3,5-bis(acetylamino)-2,4,6-triodobenzoate]
Aqueous Solubility [2]: <5 µg/mL | Upper and lower GI imaging rating [3]: excellent | Upper and lower GI imaging rating ([4]; suspension milled in/stabilized with Pluronic F127, rats): excellent | GI imaging rating ([4]; suspension stabilized with F88, for the upper GI only): excellent
